Earlier results as cited in patent publication US20050282843A1, “Therapeutic applications of 2-substituted 4-heteroarylpyrimidines” (priority 2002, published 2005).

Tested on: GSK3
Conditions: known CDK inhibitors; cited from earlier work

## CC[C@H](CO)Nc1nc(NCc2ccccc2)c2ncn(C(C)C)c2n1 [roscovitine]
  inhibition of GSK3 (literature statement): do not inhibit GSK3
